Experimental data reported in EP3744328B1, “USES OF OXADIAZINE COMPOUNDS” (Valoralia I Más D, S.L.U., priority 2019, dated 2020).

How the values were obtained:
NIH/3T3 cell = test: Cellular antioxidant activity assay (TBHP-induced ROS production, DCFH-DA probe) in NIH/3T3; assay type: cell-based; conditions: Mus musculus, NIH3T3, intracellular ROS induced by TBHP
THP-1 cell [1] = test: Cytotoxic activity assay; assay type: cell-based; conditions: 48 h, at the tested concentrations
Method: Cytotoxic activity assays. THP-1 cell was seeded in 96-well plates at a density of 5x10^4 cells/well and NIH/3T3 cells were seeded in 96-well plates at a density of 5x10^3 cells/well both incubated overnight at 37°C in a humidified atmosphere of 5% CO2. Subsequently, cells were treated with test compounds at the indicated concentrations and DMSO as control for 24 h. The test compounds were dissolved in DMSO (stock solution) and diluted with medium to a final DMSO concentration of 0.2%. MTT solution (50 µL, 7 mg/mL in PBS) was added to each well and plates were incubated for an additional 2 h. Next, the medium was removed and 100 µL of DMSO was added to each well to dissolve the formazan crystals that formed. The absorbance was measured at 590 nm using a spectrophotometric ELISA plate reader (SpectraMax® i3, Molecular Devices, CA, USA). Samples were considered nontoxic for the THP-1 and NIH/3T3 cell line when cell viability was ≥90%.
To analyse the cytotoxic activities of the test compound, THP-1 and NIH/3T3 cells were incubated with ODZN for 48 h and cytotoxicity was measured by fluorescence microscopy using an Incuyte microscope. […] (Figure 1).

NF-κB [2] = test: NF-κB activity assay (KBF-Luc luciferase reporter) in NIH/3T3; assay type: cell-based; conditions: Mus musculus, NIH3T3; NIH/3T3 cell; read-out: inhibition of NF-κB production IC50
Method: NF-κB activity assays. The NIH/3T3-KBF-Luc cells has been stably transfected with the plasmid KBF-Luc plasmid, which contains three copies of NF-κB binding site (from major histocompatibility complex promoter), fused to a minimal simian virus 40 promoter driving the luciferase gene. Cells (1x10^4 for NIH/3T3-KBF-Luc) are seeded the day before the assay on 96-well plate. Then the cells are treated with the test substances for 15 min and then stimulated with 30 ng/mL TNF-α. After 6 h, the cells are washed twice with PBS and lysed in 50µl lysis buffer containing 25 mM Tris-phosphate (pH 7.8), 8 mM MgCl2, 1 mM DTT, 1% Triton X-100, and 7% glycerol during 15 min at RT in a horizontal shaker. Luciferase activity is measured using a GloMax 96 microplate luminometer (Promega) following the instructions of the luciferase assay kit (Promega, Madison, WI, USA). The RLU is calculated and the results are expressed as percentage of inhibition of NF-κB activity induced by TNF-α (100% activation). The experiments for each concentration of the test items will be done in triplicate wells.

tyrosinase = biological target: T1, tyrosinase (Mus musculus, UniProt P11344); test: Tyrosinase activity assay in B16-F10 melanoma cells; assay type: cell-based; conditions: 72 h treatment, read-out: inhibits melanin synthesis IC50
T1 construct: To measure the tyrosinase activity of the cells, the B16-F10 cells treated for 3 days; endogenous in cells; host or cells: B16-F10 melanoma cells
T1 sequence (P11344 19-533): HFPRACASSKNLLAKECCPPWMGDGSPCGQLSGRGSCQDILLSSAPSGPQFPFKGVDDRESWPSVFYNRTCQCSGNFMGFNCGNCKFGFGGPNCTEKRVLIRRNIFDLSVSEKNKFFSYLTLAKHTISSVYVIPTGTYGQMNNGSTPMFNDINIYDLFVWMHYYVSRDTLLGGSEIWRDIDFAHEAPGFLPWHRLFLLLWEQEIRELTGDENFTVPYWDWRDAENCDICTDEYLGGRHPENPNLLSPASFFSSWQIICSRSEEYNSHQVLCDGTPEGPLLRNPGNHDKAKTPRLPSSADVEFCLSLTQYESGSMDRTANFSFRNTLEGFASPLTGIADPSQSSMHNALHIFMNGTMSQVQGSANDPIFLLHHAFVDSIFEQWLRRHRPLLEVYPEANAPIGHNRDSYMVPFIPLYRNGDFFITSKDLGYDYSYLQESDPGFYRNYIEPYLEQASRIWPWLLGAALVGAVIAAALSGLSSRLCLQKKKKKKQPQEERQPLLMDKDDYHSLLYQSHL
Method: Tyrosinase activity assay. To measure the tyrosinase activity of the cells, the B16-F10 cells treated for 3 days with several doses of the compound is lysed by incubation at 4°C for 30 min in lysis buffer (20 mM sodium phosphate, pH 6.8, 1% Triton X-100, 1 mM PMSF, 1 mM EDTA) containing protease inhibitors cocktail. The lysates are centrifuged at 15,000 × g for 10 min to obtain the supernatant as the source of tyrosinase. The reaction mixture contained 20 mM phosphate buffer, pH 6.8, 1.25 mM L-DOPA (Sigma-Aldrich). After incubation at 37°C for 2 h, dopachrome formation is monitored by measuring absorbance at a wavelength of 475 nm in a microplatereader (TECAN). Kojic acid 2 mM is used as a positive control.

TNF-α [3] = test: TNF-α activity assay (ELISA) in NIH/3T3; assay type: cell-based; conditions: Mus musculus, NIH3T3; NIH/3T3 cell; read-out: inhibition of TNF-α production IC50
Method: (§1) TNF-α activity assays. The protein expression levels of TNF-α were measured by using an enzyme-linked immunosorbent assay (ELISA) kit according to the manufacturer's instructions (Diaclone). Absorbance was read at 450 nm on a spectrophotometric ELISA plate reader (Anthos 2020, Version 2.0.5, Biochrom Ltd.,UK). The percentage of TNF-α inhibition was calculated from the ratio between the observed TNF-α amount secreted by treated cells (nM) and the baseline secretion of TNF-α (nM). Dexamethasone (Sigma-Aldrich; 50-02-2), was used as positive control (0.01 µM). Results were normalized to the solvent control DMSO (0.1%).

NF-κB [4] = test: NF-κB activity assay in THP-1; assay type: cell-based; conditions: Homo sapiens; THP-1 cell; read-out: inhibition of NF-κB production IC50
STAT3 = STAT3 activity assay (HeLa-STAT3-luc luciferase reporter); assay type: cell-based; conditions: HeLa-STAT3-Luc cells, IFNγ 25 U/mL, 6 h; read-out: inhibition of IFNγ-induced STAT3 activation IC50
Method: STAT3 activity assay. The HeLa-STAT3-luc cells have been stably transfected with the plasmid 4xM67 pTATA TK-Luc. Cells (15 x10^3 cells/mL) are seeded 96-well plate the day before the assay. Then the cells are treated with the compound for 15 min and then stimulated with IFN-γ 25 IU/mL. After 6 h, the cells are washed twice with PBS and lysed in 50 µL lysis buffer containing 25 mM Tris-phosphate (pH 7.8), 8 mM MgCl2, 1 mM DTT, 1% Triton X-100, and 7% glycerol during 15 min at RT in a horizontal shaker. Luciferase activity was measured using GloMax 96 microplate luminometer (Promega) following the instructions of the luciferase assay kit (Promega, Madison, WI, USA). The RLU is calculated and the results are expressed as percentage of inhibition of STAT3 activity induced by IFN-γ (100% activation). The experiments for each concentration of the test items will be done in triplicate wells.

HIF-1α = HIF-1α activity assay (NIH/3T3-EPO-luc luciferase reporter); assay type: cell-based; conditions: 6 h, read-out: inhibition of DFX-induced activation of EPO-Luc (surrogated marker of HIF-1α stabilization) IC50
Method: HIF-1α activity assay. The NIH/3T3-EPO-luc cells have been stably transfected with the plasmid Epo-Luc plasmid. The EPO-Hypoxia Response Element (HRE)-luciferase reporter plasmid contains three copies of the HRE consensus sequence from the promoter of the erythropoietin gene in the pGL3 vector. Cells (1x10^4 for NIH/3T3-EPO-luc) are seeded the day before the assay. The next day, the cells are stimulated either with the compound or Desferrioxamine (DFX) 150 µM as a positive control. After 6 hours of stimulation the cells are lysed in 25 mM Tris-phosphate pH 7.8, 8 mM MgCl2, 1 mM DTT, 1% Triton X-100, and 7% glycerol during 15 min at RT in a horizontal shaker. Luciferase activity is measured using a GloMax 96 microplate luminometer (Promega) following the instructions of the luciferase assay kit (Promega, Madison, WI, USA). The RLU is calculated and the results are expressed as percentage of inhibition induction/inhibition of EPO-luc activity. The experimentsfor each concentration of the test items will be done in triplicate wells.

TNF-α [5] = test: TNF-α activity assay (ELISA) in THP-1; assay type: cell-based; conditions: Homo sapiens; THP-1 cell; read-out: inhibition of TNF-α production IC50
Method: as §1

[6] = Total antioxidant activity assay (DPPH free radical assay, cell-free)
Method: Total antioxidant activity assay. […] DPPH (1,1-Diphenyl-2-[…]) is a purple coloured stable free radical that is reduced to the yellow-coloured diphenylpicrylhydrazine. In a volume of 1 mL of methanol the test samples are mixed with DPPH 0.125 mM. Trolox (200 µM) is included as a positive control. After 30 min of incubation at room temperature in the dark the absorbance measurements are read at 517 nm using Thermo Scientific Genesys 10 uv scanning spectrophotometer. Lower absorbance of the reaction mixtures indicated higher free radical-scavenging activity. DPPH radical-scavenging activity is calculated according to the following formula: %Antioxidant activity = [(Ac−As)/Ac] × 100 [formula]
Where Ac (control) is the absorbance of the control reaction (DPPH) and As (sample) is the absorbance of DPPH and sample.

THP-1 cell [7] = test: Cellular antioxidant activity assay (TBHP-induced ROS production, DCFH-DA probe) in THP-1; assay type: cell-based; conditions: Homo sapiens, intracellular ROS induced by TBHP
Method: Cellular antioxidant activity assays. The intracellular accumulation of ROS is detected by fluorimetry using 2',7'-[…] (DCFH-DA). The THP-1 cell (1x10^5 cells/well) are cultured in a 96-well black plate in DMEM supplemented with 10% FBS; culture medium is renewed when the cells reached 80% confluence. For inhibition, the cells are pre-incubated with the test substances for 30 min and treated with 0,4 mM Tert-butylhydroperoxide (TBHP). After 3 h the cells are incubated with 10 µM DCFH-DA in the culture medium at 37°C for 30 min.
The acetate groups on DCFH-DA are removed by an intracellular esterase, trapping the probe inside the THP-1 cell. Then, the cells are washed with PBS at 37°C and the production of ROS measured by changes in fluorescence due to the intracellular accumulation of DCF caused by the oxidation of DCFH. Intracellular ROS, as indicated by DCF fluorescence is detected using the Incucyte FLR software; the data are analyzed by the total green object integrated intensity (GCU x µm^2 x well) of the imaging system IncuCyte HD (Essen BioScience).

In the case of `CCCCCC1=NN(C(=O)CCO)OC(CCCCC)C1` (stereo not drawn) [ODZN, 1-(4,6-dipentyl-5,6-dihydro-2H-1,2,3-oxadiazin-2-yl)-3-hydroxypropan-1-one], the IC50 (NIH/3T3 cell) is reported as 3.33 nM, the cytotoxicity (THP-1 cell [1]) is reported as “no cytotoxicity” and the IC50 (NF-κB [2]) is reported as 31.8 nM. The IC50 (tyrosinase) was 16.9 nM, the IC50 (TNF-α [3]) was 8.21 nM and the IC50 (NF-κB [4]) was 56.3 nM. It also gave an IC50 (STAT3) of 1.57 nM, an IC50 (HIF-1α) of 9.59 nM and an IC50 (TNF-α [5]) of 14.8 nM. It also gave an IC50 ([6]; cell-free assay (DPPH)) of 9.77 nM and an IC50 (THP-1 cell [7]) of 10.6 nM.

For `Cc1c(C)c2c(c(C)c1O)CCC(C)(C(=O)O)O2` (stereo not drawn) [Trolox, reference compound], the antioxidant activity ([6]; DPPH free radical assay, standard, 200 µM positive control) was 92.08%.
